pIC50: −log10 of the molar value.
Legend:
Erk2 = Erk2 (Homo sapiens, UniProt P28482); experiment: Cell-free kinase assay (ALPHA technology), Erk2; format: biochemical; conditions: 10 μM ATP
Description: The inhibitory effect of the compounds according to the invention was tested on various serine/threonine, tyrosine and lipid kinases in enzymatic assays. […] The commercial kinase proteins (Proqinase, Upstate) were used as recombinant fusion proteins with GST (glutathion-S-transferase) or His-Tag. Depending on the type of substrate, the various kinase reactions were quantified by means of suitable ALPHA™ beads (Perkin-Elmer). The substance testing is described in detail hereinafter for the Erk assay. […] a) MAPK-ALPHAs (e.g. […] The kinase reaction was then stopped by adding ALPHA bead mixes (10 μg/ml, #6760603/Perkin-Elmer) pre-incubated with 1 nM GST:Grp1 fusion protein (Upstate) and 15 nM biotinylated PIP3 (#C-39B6/Echelon) in 50 mM Hepes, 50 mM NaCl, 50 mM EDTA and 0.1% BSA and left to stand overnight. The fluorescence was detected the following morning in a Fusion™^aα-system (Perkin-Elmer). […] Eight determinations were made for each control and two for the substance samples. […] The IC50 values were determined using GraphPadPrism.

PI3Kalpha = PI3Kalpha (Homo sapiens (Human), UniProt P42336); experiment: Cell-free kinase assay (ALPHA technology), PI3Kalpha; format: biochemical; conditions: 100 μM ATP
Description: (§1) The inhibitory effect of the compounds according to the invention was tested on various serine/threonine, tyrosine and lipid kinases in enzymatic assays. Recombinant human kinases such as, for example, Erk2, PI3Kalpha, -beta, -gamma, -delta, p38alpha, p38gamma, Jnk1, Jnk2 and others were used in this case, partly as full-length kinases, partly as shortened fragments, but at least consisting of the functional kinase domains. The commercial kinase proteins (Proqinase, Upstate) were used as recombinant fusion proteins with GST (glutathion-S-transferase) or His-Tag. Depending on the type of substrate, the various kinase reactions were quantified by means of suitable ALPHA™ beads (Perkin-Elmer).
(§2) The substance testing is described in detail hereinafter for the Erk assay.
(§3) a) MAPK-ALPHAs (e.g. Erk2): the test substance, 0.625 ng Erk2 (#14-173, Upstate), 10 μM ATP and 15 nM biotinylated MBP (myelin basic protein) substrate were incubated on a 384-well Optiplate (Perkin-Elmer) in a volume of 15 μl for 1 h in 25 mM Tris, 10 mM MgCl2, 0.1% Tween-20, 100 μM NaVO4, 2 mM DTT at pH 7.5. The kinase reaction was then stopped by adding 10 μl of the ALPHA bead mixes (10 μg/ml, #6760617/Perkin-Elmer) pre-incubated with anti-phospho MBP antibody (320 pM, #05-429/Upstate) in 25 mM Tris, 200 mM NaCl, 110 nM EDTA and 0.3% BSA and left to stand overnight. b) PI3K-ALPHAs (e.g. PI3Kalpha): the test substance, 1 ng PI3Kalpha (#14-602, Upstate), 100 μM ATP and 20 μM PIP2 substrate (#P4508, Echelon) were incubated on a 384-well Optiplate (Perkin-Elmer) for 1 h in 50 mM Hepes, 50 mM NaCl, 5 mM MgCl2, 0.05% Chaps, 5 mM DTT at pH 7.4. The kinase reaction was then stopped by adding ALPHA bead mixes (10 μg/ml, #6760603/Perkin-Elmer) pre-incubated with 1 nM GST:Grp1 fusion protein (Upstate) and 15 nM biotinylated PIP3 (#C-39B6/Echelon) in 50 mM Hepes, 50 mM NaCl, 50 mM EDTA and 0.1% BSA and left to stand overnight.
(§4) The fluorescence was detected the following morning in a Fusion™^aα-system (Perkin-Elmer).
(§5) The %-inhibition values per substance concentration were calculated by means of the following formula from the raw data determined in the Fusion™ ? :
(§6) Eight determinations were made for each control and two for the substance samples. The 0% control either contains no ATP or no substrate, the 100% control (fully active kinase) contains no test substance. The IC50 values were determined using GraphPadPrism.

p38alpha = p38alpha (Homo sapiens (Human), UniProt Q16539); experiment: Cell-free kinase assay (ALPHA technology), p38alpha; format: biochemical; conditions: 10 μM ATP
Description: as §1, §2, §3, §4, §5, §6

Jnk1 + Jnk2 = experiment: Cell-free kinase assay (ALPHA technology), Jnk1 + Jnk2; format: biochemical, human; conditions: 10 μM ATP
Description: as §1, §2, §3, §4, §5, §6

Sequence of p38alpha (Q16539 whole entry): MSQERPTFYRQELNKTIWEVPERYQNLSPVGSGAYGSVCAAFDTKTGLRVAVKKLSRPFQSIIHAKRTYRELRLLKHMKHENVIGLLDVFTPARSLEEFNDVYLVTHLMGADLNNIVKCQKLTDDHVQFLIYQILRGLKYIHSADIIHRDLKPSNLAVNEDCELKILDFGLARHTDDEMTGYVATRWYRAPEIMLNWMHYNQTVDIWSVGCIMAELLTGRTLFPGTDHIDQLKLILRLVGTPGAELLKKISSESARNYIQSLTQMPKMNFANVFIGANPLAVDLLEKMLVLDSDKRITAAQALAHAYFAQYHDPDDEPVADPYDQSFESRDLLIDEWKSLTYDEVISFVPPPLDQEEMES
Sequence of Erk2 (P28482 2-360 limits assumed): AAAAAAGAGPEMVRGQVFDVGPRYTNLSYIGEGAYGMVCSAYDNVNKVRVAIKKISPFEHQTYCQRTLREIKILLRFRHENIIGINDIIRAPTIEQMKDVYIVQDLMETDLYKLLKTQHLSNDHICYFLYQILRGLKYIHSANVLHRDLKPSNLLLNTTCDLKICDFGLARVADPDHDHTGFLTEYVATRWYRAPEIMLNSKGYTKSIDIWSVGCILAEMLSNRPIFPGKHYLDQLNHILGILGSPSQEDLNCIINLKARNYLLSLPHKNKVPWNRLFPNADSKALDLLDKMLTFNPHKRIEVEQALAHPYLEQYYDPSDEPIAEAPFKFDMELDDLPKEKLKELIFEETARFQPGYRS
Sequence of PI3Kalpha (P42336 whole entry, the tested form may be a part): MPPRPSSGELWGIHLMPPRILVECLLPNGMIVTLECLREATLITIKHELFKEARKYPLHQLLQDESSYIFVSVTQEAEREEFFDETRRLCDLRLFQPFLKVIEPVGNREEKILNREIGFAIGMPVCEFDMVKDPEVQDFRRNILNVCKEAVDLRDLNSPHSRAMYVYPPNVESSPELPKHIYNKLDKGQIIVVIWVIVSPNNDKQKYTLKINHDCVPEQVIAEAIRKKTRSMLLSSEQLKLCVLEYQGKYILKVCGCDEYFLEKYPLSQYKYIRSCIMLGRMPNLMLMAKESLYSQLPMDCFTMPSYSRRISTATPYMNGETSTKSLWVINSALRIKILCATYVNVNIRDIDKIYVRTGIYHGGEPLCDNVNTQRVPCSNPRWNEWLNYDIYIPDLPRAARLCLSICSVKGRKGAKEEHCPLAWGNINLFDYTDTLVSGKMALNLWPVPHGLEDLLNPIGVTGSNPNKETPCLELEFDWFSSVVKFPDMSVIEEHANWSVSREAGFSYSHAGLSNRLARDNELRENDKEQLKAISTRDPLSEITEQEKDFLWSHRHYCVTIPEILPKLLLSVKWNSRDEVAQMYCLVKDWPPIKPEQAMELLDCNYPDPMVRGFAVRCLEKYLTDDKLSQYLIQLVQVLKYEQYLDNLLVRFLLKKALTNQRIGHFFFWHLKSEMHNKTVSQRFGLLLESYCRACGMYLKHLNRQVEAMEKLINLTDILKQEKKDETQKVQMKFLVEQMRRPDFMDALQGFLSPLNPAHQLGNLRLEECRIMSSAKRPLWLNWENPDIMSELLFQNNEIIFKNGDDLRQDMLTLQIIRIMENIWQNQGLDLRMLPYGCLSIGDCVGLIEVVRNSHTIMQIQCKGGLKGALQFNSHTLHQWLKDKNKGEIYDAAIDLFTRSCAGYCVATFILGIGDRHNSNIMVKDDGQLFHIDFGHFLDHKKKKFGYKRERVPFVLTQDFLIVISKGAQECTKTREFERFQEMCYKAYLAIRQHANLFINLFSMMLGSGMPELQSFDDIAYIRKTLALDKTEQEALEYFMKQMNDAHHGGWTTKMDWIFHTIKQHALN
Sequence of PI3Kalpha (P27986 whole entry partner, the tested form may be a part): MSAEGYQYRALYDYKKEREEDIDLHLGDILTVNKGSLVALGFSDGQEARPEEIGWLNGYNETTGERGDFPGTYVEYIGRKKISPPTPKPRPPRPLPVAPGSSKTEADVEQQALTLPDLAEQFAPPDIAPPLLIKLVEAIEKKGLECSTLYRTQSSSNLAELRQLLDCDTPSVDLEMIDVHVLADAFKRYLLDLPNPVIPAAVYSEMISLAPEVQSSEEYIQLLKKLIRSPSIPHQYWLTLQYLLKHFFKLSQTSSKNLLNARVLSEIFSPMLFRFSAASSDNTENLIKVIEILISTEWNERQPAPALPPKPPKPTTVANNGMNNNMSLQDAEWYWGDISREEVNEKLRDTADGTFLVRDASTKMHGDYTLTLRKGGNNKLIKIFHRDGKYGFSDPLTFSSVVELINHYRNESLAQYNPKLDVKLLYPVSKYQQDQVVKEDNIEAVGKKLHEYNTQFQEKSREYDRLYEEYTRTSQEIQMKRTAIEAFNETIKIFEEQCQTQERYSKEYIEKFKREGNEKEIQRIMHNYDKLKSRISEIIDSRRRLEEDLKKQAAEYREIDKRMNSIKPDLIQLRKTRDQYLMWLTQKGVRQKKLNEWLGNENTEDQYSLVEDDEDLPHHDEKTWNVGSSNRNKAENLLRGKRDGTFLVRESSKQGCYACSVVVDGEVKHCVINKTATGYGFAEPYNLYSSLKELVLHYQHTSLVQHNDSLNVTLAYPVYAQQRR

C=CCNC(=S)Nc1ccc2ncc(-c3ccc(O)cc3)nc2n1.Cl
melting point: 160 to 161 °C (dec.)

C=C(C)CNC(=S)Nc1ccc2ncc(-c3ccc(OC)cc3)nc2n1 [Compound 3, 1-[3-(4-methoxy-phenyl)-pyrido[2,3-b]pyrazin-6-yl]-3-(2-methyl-allyl)-thiourea]
melting point: 251 to 252 °C (dec.)

C=C(C)CNC(=S)Nc1ccc2ncc(-c3ccccc3)nc2n1 [Compound 4, 1-(2-methyl-allyl)-3-(3-phenyl-pyrido[2,3-b]pyrazin-6-yl)-thiourea]
melting point: 225 to 226 °C (dec.)

C=CCNC(=S)Nc1ccc2ncc(-c3ccc4ccccc4c3)nc2n1 [Compound 5, 1-allyl-3-(3-naphth-2-yl-pyrido[2,3-b]pyrazin-6-yl)-thiourea]
melting point: 242 to 243 °C (dec.)

C=CCNC(=S)Nc1ccc2ncc(-c3ccc(OC)cc3)nc2n1 [Compound 6, 1-allyl-3-[3-(4-methoxy-phenyl)-pyrido[2,3-b]pyrazin-6-yl]-thiourea]
melting point: 240 to 241 °C (dec.)

O=[N+]([O-])c1ccc(NC(=S)Nc2ccc3ncc(-c4ccc5ccccc5c4)nc3n2)cc1 [Compound 8, 1-(3-naphth-2-yl-pyrido[2,3-b]pyrazin-6-yl)-3-(4-nitro-phenyl)-thiourea]
melting point: 260 to 261 °C (dec.)

COc1ccc(-c2cnc3ccc(NC(=S)Nc4ccc([N+](=O)[O-])cc4)nc3n2)cc1 [Compound 9, 1-[3-(4-methoxy-phenyl)-pyrido[2,3-b]pyrazin-6-yl]-3-(4-nitro-phenyl)-thiourea]
melting point: 250 to 251 °C (dec.)

CC(C)(C)NC(=S)Nc1ccc2ncc(-c3ccccc3)nc2n1 [Compound 10, 1-tert.butyl-3-(3-phenyl-pyrido[2,3-b]pyrazin-6-yl)-thiourea]
melting point: 227 °C (dec.)

S=C(Nc1ccc2ncc(-c3ccccc3)nc2n1)NC1CC1 [Compound 11, 1-cyclopropyl-3-(3-phenyl-pyrido[2,3-b]pyrazin-6-yl)-thiourea]
melting point: 233 to 234 °C

CNC(=S)Nc1ccc2ncc(-c3ccccc3)nc2n1 [Compound 12, 1-methyl-3-(3-phenyl-pyrido[2,3-b]pyrazin-6-yl)-thiourea]
melting point: 253 to 254 °C

S=C(NCc1ccccc1)Nc1ccc2ncc(-c3ccccc3)nc2n1 [Compound 13, 1-benzyl-3-(3-phenyl-pyrido[2,3-b]pyrazin-6-yl)-thiourea]
melting point: 232 to 233 °C

Fc1ccc(NC(=S)Nc2ccc3ncc(-c4ccccc4)nc3n2)cc1 [Compound 14, 1-(4-fluoro-phenyl)-3-(3-phenyl-pyrido[2,3-b]pyrazin-6-yl)-thiourea]
melting point: 225 to 226 °C

Cc1ccc(NC(=O)Nc2ccc3ncc(-c4ccccc4)nc3n2)cc1 [Compound 15, 1-(3-phenyl-pyrido[2,3-b]pyrazin-6-yl)-3-p-tolyl-urea]
melting point: 298 to 299 °C

O=C(Nc1ccc(Cl)c(C(F)(F)F)c1)Nc1ccc2ncc(-c3ccccc3)nc2n1 [Compound 16, 1-(4-chloro-3-trifluoromethyl-phenyl)-3-(3-phenyl-pyrido[2,3-b]pyrazin-6-yl)-urea]
melting point: 250 °C

O=C(NCCN1CCOCC1)Nc1ccc2ncc(-c3ccccc3)nc2n1 [Compound 17, 1-(2-Morpholin-4-yl-ethyl)-3-(3-phenyl-pyrido[2,3-b]pyrazin-6-yl)-urea]
melting point: 226 °C

S=C(Nc1ccc2ncc(-c3ccccc3)nc2n1)NC1CCCCC1 [Compound 18, 1-cyclohexyl-3-(3-phenyl-pyrido[2,3-b]pyrazin-6-yl)-thiourea]
melting point: 230 to 232 °C

CCNC(=O)Nc1ccc2ncc(Nc3ccc(OC)c(Cl)c3)nc2n1 [Compound 177, 1-[3-(3-Chloro-4-methoxy-phenylamino)-pyrido[2,3-b]pyrazin-6-yl]-3-ethyl-urea]
pIC50 (Erk2): < 4.50 | pIC50 (PI3Kalpha): 6.53 | pIC50 (p38alpha): < 4.00 | pIC50 (Jnk1 + Jnk2): 5.41

CCNC(=O)Nc1ccc2ncc(Nc3ccc4ccccc4c3)nc2n1 [Compound 178, 1-Ethyl-3-[3-(naphthalin-2-ylamino)-pyrido[2,3-b]pyrazin-6-yl]-urea]
pIC50 (Erk2): < 4.00 | pIC50 (PI3Kalpha): 6.79 | pIC50 (p38alpha): < 4.50 | pIC50 (Jnk1 + Jnk2): 5.64

CCNC(=O)Nc1ccc2ncc(Nc3cnc4ccccc4c3)nc2n1 [Compound 179, 1-Ethyl-3-[3-(chinolin-3-ylamino)-pyrido[2,3-b]pyrazin-6-yl]-urea]
pIC50 (Erk2): 5.10 | pIC50 (PI3Kalpha): 6.69 | pIC50 (p38alpha): 5.85 | pIC50 (Jnk1 + Jnk2): 5.09

CCNC(=O)Nc1ccc2ncc(Nc3cc(OC)cc(OC)c3)nc2n1 [Compound 180, 1-[3-(3,5-Dimethoxy-phenylamino)-pyrido[2,3-b]pyrazin-6-yl]-3-ethyl-urea]
pIC50 (Erk2): 4.80 | pIC50 (PI3Kalpha): 5.96 | pIC50 (p38alpha): < 4.00 | pIC50 (Jnk1 + Jnk2): 5.07

CCNC(=O)Nc1ccc2ncc(Nc3cnccn3)nc2n1 [Compound 181, 1-Ethyl-3-[3-(pyrazin-2-ylamino)-pyrido[2,3-b]pyrazin-6-yl]-urea]
pIC50 (Erk2): 5.77 | pIC50 (PI3Kalpha): 6.13 | pIC50 (p38alpha): < 4.00 | pIC50 (Jnk1 + Jnk2): 5.37

CCNC(=O)Nc1ccc2ncc(Nc3cccc(OC(C)C)c3)nc2n1 [Compound 182, 1-Ethyl-3-[3-(3-isopropoxy-phenylamino)-pyrido[2,3-b]pyrazin-6-yl]-urea]
pIC50 (Erk2): < 4.50 | pIC50 (PI3Kalpha): 5.96 | pIC50 (p38alpha): < 4.00 | pIC50 (Jnk1 + Jnk2): 4.68

CCNC(=O)Nc1ccc2ncc(Nc3ccnc(Cl)c3)nc2n1 [Compound 184, 1-[3-(2-Chloro-pyridin-4-ylamino)-pyrido[2,3-b]pyrazin-6-yl]-3-ethyl-urea]
pIC50 (Erk2): < 4.00 | pIC50 (PI3Kalpha): 6.88 | pIC50 (p38alpha): < 4.00 | pIC50 (Jnk1 + Jnk2): 5.20

CCNC(=O)Nc1ccc2ncc(Nc3cc(Cl)c(O)c(Cl)c3)nc2n1 [Compound 185, 1-[3-(3,5-Dichloro-4-hydroxy-phenylamino)-pyrido[2,3-b]pyrazin-6-yl]-3-ethyl-urea]
pIC50 (Erk2): < 4.50 | pIC50 (PI3Kalpha): 6.81 | pIC50 (p38alpha): < 4.00 | pIC50 (Jnk1 + Jnk2): 5.37

CCNC(=O)Nc1ccc2ncc(Nc3ccc(OC)c(OC)c3)nc2n1 [Compound 187, 1-[3-(3,4-Dimethoxy-phenylamino)-pyrido[2,3-b]pyrazin-6-yl]-3-ethyl-urea]
pIC50 (Erk2): 4.78 | pIC50 (PI3Kalpha): 6.15 | pIC50 (p38alpha): < 4.50 | pIC50 (Jnk1 + Jnk2): < 4.00

CCNC(=O)Nc1ccc2ncc(Nc3ccc(C)c(O)c3)nc2n1 [Compound 188, 1-Ethyl-3-[3-(3-hydroxy-4-methyl-phenylamino)-pyrido[2,3-b]pyrazin-6-yl]-urea]
pIC50 (Erk2): < 4.00 | pIC50 (PI3Kalpha): 5.55 | pIC50 (p38alpha): < 4.00 | pIC50 (Jnk1 + Jnk2): < 4.50

CCNC(=O)Nc1ccc2ncc(Nc3cc(C(=O)O)cc(C(F)(F)F)c3)nc2n1 [Compound 189, 3-[6-(3-Ethyl-ureido)-pyrido[2,3-b]-pyrazin-3-ylamino]-5-trifluoromethyl-benzoic acid]
pIC50 (Erk2): 4.69 | pIC50 (PI3Kalpha): 6.63 | pIC50 (p38alpha): < 4.00 | pIC50 (Jnk1 + Jnk2): 5.21

CCNC(=O)Nc1ccc2ncc(Nc3ccc(OC)nc3)nc2n1 [Compound 190, 1-Ethyl-3-[3-(6-methoxy-pyridin-3-ylamino)-pyrido[2,3-b]pyrazin-6-yl]-urea]
pIC50 (Erk2): < 4.00 | pIC50 (PI3Kalpha): 6.57 | pIC50 (p38alpha): < 4.00 | pIC50 (Jnk1 + Jnk2): 4.51

CCNC(=O)Nc1ccc2ncc(Nc3ccc(C#N)cc3)nc2n1 [Compound 192, 1-[3-(4-Cyano-phenylamino)-pyrido-[2,3-b]pyrazin-6-yl]-3-ethyl-urea]
pIC50 (Erk2): 4.50 | pIC50 (PI3Kalpha): 6.37 | pIC50 (p38alpha): < 4.00 | pIC50 (Jnk1 + Jnk2): 5.74
